Species on record: Rattus norvegicus
Assay: DrugMatrix - Regimen: Daily Repeat
Assay type: toxicity, organism-based, Sprague-Dawley
Set-up: regimen Daily Repeat, gender Male, age 6-8 weeks
Details: in vivo, po, route oral GAVAGE, vehicle .5 % CMC; for ABSOLUTE BASOPHIL / ABSOLUTE EOSINOPHIL / ABSOLUTE LYMPHOCYTE / ABSOLUTE MONOCYTE / ABSOLUTE SEGMENTED NEUTROPHIL / BASOPHIL / EOSINOPHIL / ERYTHROCYTE COUNT / HEMATOCRIT / HEMOGLOBIN / LEUKOCYTE COUNT / LYMPHOCYTE / MEAN CORPUSCULAR HEMOGLOBIN / MEAN CORPUSCULAR HEMOGLOBIN CONCENTRATION / MEAN CORPUSCULAR VOLUME / MONOCYTE / NEUTROPHIL / NUCLEATED RED BLOOD CELLS / PLATELET COUNT: tissue Blood; for ALANINE AMINOTRANSFERASE / ALBUMIN / ALKALINE PHOSPHATASE / ASPARTATE AMINOTRANSFERASE / BLOOD UREA NITROGEN / CARBON DIOXIDE / CHLORIDE / CHOLESTEROL / CREATINE PHOSPHOKINASE / CREATININE / GLUCOSE / LACTATE DEHYDROGENASE / LIPASE / PHOSPHORUS / POTASSIUM / SODIUM / TOTAL BILIRUBIN / TOTAL PROTEIN / URIC ACID: tissue Plasma
[1] = 0 mg/kg, 72 h, dose level Control, time 3 day
[2] = 0 mg/kg, 120 h, dose level Control, time 5 day
[3] = 1 mg/kg, 72 h, dose level Low, time 3 day
[4] = 1 mg/kg, 120 h, dose level Low, time 5 day

OC(CCN1CCCCC1)(c1ccccc1)C1CCCCC1 (configuration not stated) [TRIHEXYPHENIDYL]
ABSOLUTE BASOPHIL [1]: 0 CELLS/uL | ABSOLUTE EOSINOPHIL [1]: 0 CELLS/uL | ABSOLUTE LYMPHOCYTE [1]: 10913.67 CELLS/uL | ABSOLUTE MONOCYTE [1]: 85.33 CELLS/uL | ABSOLUTE SEGMENTED NEUTROPHIL [1]: 1401 CELLS/uL | BASOPHIL [1]: 0% | EOSINOPHIL [1]: 0% | ERYTHROCYTE COUNT [1]: 5.57 x10E6/uL | HEMATOCRIT [1]: 35.58% | HEMOGLOBIN [1]: 13.8 G/DL | LEUKOCYTE COUNT [1]: 12.4 x10E3/uL | LYMPHOCYTE [1]: 88% | MEAN CORPUSCULAR HEMOGLOBIN [1]: 24.78 pg | MEAN CORPUSCULAR HEMOGLOBIN CONCENTRATION [1]: 38.82 G/DL | MEAN CORPUSCULAR VOLUME [1]: 63.88 fL | MONOCYTE [1]: 0.67% | NEUTROPHIL [1]: 11.33% | NUCLEATED RED BLOOD CELLS [1]: 0 /100WBC | PLATELET COUNT [1]: 1162.33 x10E3/uL | ALANINE AMINOTRANSFERASE [1]: 53 u/L | ALBUMIN [1]: 4.17 G/DL | ALKALINE PHOSPHATASE [1]: 374.5 u/L | ASPARTATE AMINOTRANSFERASE [1]: 89.5 u/L | BLOOD UREA NITROGEN [1]: 16.33 mg/dL | CARBON DIOXIDE [1]: 29.17 mmol/L | CHLORIDE [1]: 97.67 MEQ/L | CHOLESTEROL [1]: 77 mg/dL | CREATINE PHOSPHOKINASE [1]: 464.83 u/L | CREATININE [1]: 0.14 mg/dL | GLUCOSE [1]: 164 mg/dL | LACTATE DEHYDROGENASE [1]: 155.5 u/L | LIPASE [1]: 9.17 u/L | PHOSPHORUS [1]: 12.4 mg/dL | POTASSIUM [1]: 6.91 MEQ/L | SODIUM [1]: 141.47 MEQ/L | TOTAL BILIRUBIN [1]: 0.2 mg/dL | TOTAL PROTEIN [1]: 5.95 G/DL | URIC ACID [1]: 1.72 mg/dL | ABSOLUTE BASOPHIL [2]: 0 CELLS/uL | ABSOLUTE EOSINOPHIL [2]: 20.5 CELLS/uL | ABSOLUTE LYMPHOCYTE [2]: 13871.67 CELLS/uL | ABSOLUTE MONOCYTE [2]: 60.5 CELLS/uL | ABSOLUTE SEGMENTED NEUTROPHIL [2]: 980.67 CELLS/uL | BASOPHIL [2]: 0% | EOSINOPHIL [2]: 0.17% | ERYTHROCYTE COUNT [2]: 5.65 x10E6/uL | HEMATOCRIT [2]: 35.63% | HEMOGLOBIN [2]: 14.08 G/DL | LEUKOCYTE COUNT [2]: 14.93 x10E3/uL | LYMPHOCYTE [2]: 92.83% | MEAN CORPUSCULAR HEMOGLOBIN [2]: 24.97 pg | MEAN CORPUSCULAR HEMOGLOBIN CONCENTRATION [2]: 39.55 G/DL | MEAN CORPUSCULAR VOLUME [2]: 63.13 fL | MONOCYTE [2]: 0.33% | NEUTROPHIL [2]: 6.67% | NUCLEATED RED BLOOD CELLS [2]: 0 /100WBC | PLATELET COUNT [2]: 1248.17 x10E3/uL | ALANINE AMINOTRANSFERASE [2]: 45.17 u/L | ALBUMIN [2]: 4.27 G/DL | ALKALINE PHOSPHATASE [2]: 405.67 u/L | ASPARTATE AMINOTRANSFERASE [2]: 74.17 u/L | BLOOD UREA NITROGEN [2]: 15.5 mg/dL | CARBON DIOXIDE [2]: 30.17 mmol/L | CHLORIDE [2]: 100.67 MEQ/L | CHOLESTEROL [2]: 57 mg/dL | CREATINE PHOSPHOKINASE [2]: 239.5 u/L | CREATININE [2]: 0.17 mg/dL | GLUCOSE [2]: 165.67 mg/dL | LACTATE DEHYDROGENASE [2]: 90.5 u/L | LIPASE [2]: 8.83 u/L | PHOSPHORUS [2]: 12.32 mg/dL | POTASSIUM [2]: 7.03 MEQ/L | SODIUM [2]: 142.65 MEQ/L | TOTAL BILIRUBIN [2]: 0.18 mg/dL | TOTAL PROTEIN [2]: 6.03 G/DL | URIC ACID [2]: 1.98 mg/dL | ABSOLUTE BASOPHIL [3]: 0 CELLS/uL | ABSOLUTE EOSINOPHIL [3]: 0 CELLS/uL | ABSOLUTE LYMPHOCYTE [3]: 14884.67 CELLS/uL | ABSOLUTE MONOCYTE [3]: 0 CELLS/uL | ABSOLUTE SEGMENTED NEUTROPHIL [3]: 848.67 CELLS/uL | BASOPHIL [3]: 0% | EOSINOPHIL [3]: 0% | ERYTHROCYTE COUNT [3]: 5.35 x10E6/uL | HEMATOCRIT [3]: 35.77% | HEMOGLOBIN [3]: 14.27 G/DL | LEUKOCYTE COUNT [3]: 15.73 x10E3/uL | LYMPHOCYTE [3]: 94.33% | MEAN CORPUSCULAR HEMOGLOBIN [3]: 26.7 pg | MEAN CORPUSCULAR HEMOGLOBIN CONCENTRATION [3]: 39.87 G/DL | MEAN CORPUSCULAR VOLUME [3]: 66.97 fL | MONOCYTE [3]: 0% | NEUTROPHIL [3]: 5.67% | NUCLEATED RED BLOOD CELLS [3]: 0 /100WBC | PLATELET COUNT [3]: 1285.67 x10E3/uL | ALANINE AMINOTRANSFERASE [3]: 51.33 u/L | ALBUMIN [3]: 4.33 G/DL | ALKALINE PHOSPHATASE [3]: 449.67 u/L | ASPARTATE AMINOTRANSFERASE [3]: 84 u/L | BLOOD UREA NITROGEN [3]: 18.67 mg/dL | CARBON DIOXIDE [3]: 27.33 mmol/L | CHLORIDE [3]: 99.67 MEQ/L | CHOLESTEROL [3]: 76 mg/dL | CREATINE PHOSPHOKINASE [3]: 344.67 u/L | CREATININE [3]: 0.14 mg/dL | GLUCOSE [3]: 149.33 mg/dL | LACTATE DEHYDROGENASE [3]: 254.67 u/L | LIPASE [3]: 9.33 u/L | PHOSPHORUS [3]: 13.83 mg/dL | POTASSIUM [3]: 6.89 MEQ/L | SODIUM [3]: 145.2 MEQ/L | TOTAL BILIRUBIN [3]: 0.17 mg/dL | TOTAL PROTEIN [3]: 6.23 G/DL | URIC ACID [3]: 1.77 mg/dL | ABSOLUTE BASOPHIL [4]: 0 CELLS/uL | ABSOLUTE EOSINOPHIL [4]: 0 CELLS/uL | ABSOLUTE LYMPHOCYTE [4]: 16182.67 CELLS/uL | ABSOLUTE MONOCYTE [4]: 124 CELLS/uL | ABSOLUTE SEGMENTED NEUTROPHIL [4]: 1360 CELLS/uL | BASOPHIL [4]: 0% | EOSINOPHIL [4]: 0% | ERYTHROCYTE COUNT [4]: 5.66 x10E6/uL | HEMATOCRIT [4]: 35.77% | HEMOGLOBIN [4]: 14.3 G/DL | LEUKOCYTE COUNT [4]: 17.67 x10E3/uL | LYMPHOCYTE [4]: 91.67% | MEAN CORPUSCULAR HEMOGLOBIN [4]: 25.23 pg | MEAN CORPUSCULAR HEMOGLOBIN CONCENTRATION [4]: 40 G/DL | MEAN CORPUSCULAR VOLUME [4]: 63.13 fL | MONOCYTE [4]: 0.67% | NEUTROPHIL [4]: 7.67% | NUCLEATED RED BLOOD CELLS [4]: 0.33 /100WBC | PLATELET COUNT [4]: 1182.33 x10E3/uL | ALANINE AMINOTRANSFERASE [4]: 45.67 u/L | ALBUMIN [4]: 4.2 G/DL | ALKALINE PHOSPHATASE [4]: 394 u/L | ASPARTATE AMINOTRANSFERASE [4]: 78.67 u/L | BLOOD UREA NITROGEN [4]: 15.67 mg/dL | CARBON DIOXIDE [4]: 26.67 mmol/L | CHLORIDE [4]: 101 MEQ/L | CHOLESTEROL [4]: 73.33 mg/dL | CREATINE PHOSPHOKINASE [4]: 379.33 u/L | CREATININE [4]: 0.13 mg/dL | GLUCOSE [4]: 139.67 mg/dL | LACTATE DEHYDROGENASE [4]: 370.67 u/L | LIPASE [4]: 9 u/L | PHOSPHORUS [4]: 12.93 mg/dL | POTASSIUM [4]: 6.84 MEQ/L | SODIUM [4]: 143 MEQ/L | TOTAL BILIRUBIN [4]: 0.17 mg/dL | TOTAL PROTEIN [4]: 5.9 G/DL | URIC ACID [4]: 1.3 mg/dL

Reference: ChEMBL document CHEMBL3885881, “DrugMatrix”
